Experimental data reported in US10017542B2, “Antimicrobial peptides and methods of use thereof” (priority 2015, dated 2018).
Where a SMILES comes first, the peptide text is derived from it. Where no end group is shown, it is not given here. [ ]: non-standard residue; d: D form. Orn = NCCC[C@H](N)C(=O)O

How the values were obtained:
[1] = system: Clostridium difficile; experiment: Killing of antibiotic resistant bacteria (FIG. 2); format: cell-based; details: 1 hour time point after addition, single cell format
[2] = system: Pseudomonas aeruginosa; experiment: Killing of antibiotic resistant bacteria (FIG. 2); details: 1 hour time point after addition, single cell format
[3] = system: Staphylococcus aureus; experiment: Killing of antibiotic resistant bacteria (FIG. 2); details: 1 hour time point after addition, single cell format
[4] = system: B. thailandensis; details: concentration required to kill 50% of B. thailandensis; 10 mM phosphate buffer, 3 h, 37° C.
[5] = system: S. epidermis (G+) biofilm
Method: (§1) The Minimum Biofilm Eradication Concentration (MBEC) Assay was used. MBEC values provide estimates on the concentration of an antimicrobial product required to kill biofilm bacteria. The Calgary Biofilm Device (CBD) plate was used to effect biofilm formation on a lid containing 96 pegs. Bacterial cultures were grown and diluted in Tryptic Soy Broth (TSB) to approximately 1×10^7 CFU/mL before inoculation of the CBD plate, which was then incubated for 24 hr at 35° C. on a shaker at 125 rpm.
(§2) The peg lid containing biofilm was first rinsed in PBS to remove planktonic cells prior to treatment with 2-fold serial dilutions of test articles and control overnight at 35° C. The peg lid was rinsed in PBS twice before sonication in fresh media to disrupt biofilm adhered to the pegs. The plate was then incubated overnight to evaluate growth. Bacterial quantification was performed by measuring absorbance at 650 nm (A650). By definition, A650 reading of less than 0.1 indicates biofilm eradication.

[6] = system: P. aeruginosa (G−) biofilm
Method: as §1, §2

[7] = system: S. aureus MRSA (G+) biofilm
Method: as §1, §2

[8] = system: A. baumanii (G−) biofilm
Method: as §1, §2

[9] = system: E. cloaca; details: 24 h
Method: (§3) Measurement of antimicrobial and anti-fungal activity was determined by a standard micrometer dilution method. Briefly, cells were grown overnight in media specified for each strain, and were diluted in the same media. Serial dilutions of the peptides were added to microtiter plates in a volume of 50 ul, followed by the addition of 50 ul of bacteria or fungi, 5×10^5 CFU/ml. Plates were incubated at 37 degrees for 24 hours and the Minimum Inhibitory Concentrations (MICs) were determined as the lowest peptide concentration that inhibited 50% of bacterial growth.

[10] = system: bacterial isolates of Table 7 (A. baumanii, E. coli, E. cloaca, Pseudomonas, Staphylococcus)
Method: (§4) Briefly, cells were grown overnight in media specified for each strain, and were diluted in the same media. Serial dilutions of the peptides were added to microtiter plates in a volume of 50 ul, followed by the addition of 50 ul of bacteria or fungi, 5×10^5 CFU/ml. Plates were incubated at 37 degrees for 24 hours and the Minimum Inhibitory Concentrations (MICs) were determined as the lowest peptide concentration that inhibited 50% of bacterial growth.

[11] = system: E. coli; details: 24 h
Method: as §3

[12] = system: fungal isolates of Table 8 (C. albicans, C. krusei, C. tropicalis)
Method: as §3

[13] = system: C. albicans; details: 24 h
Method: as §4

[14] = system: C. krusei; details: 24 h
Method: as §3

[15] = system: C. tropicalis; details: 24 h
Method: as §3

Row | Compound | EC50 [4] | Average MBEC [5] | Average MBEC [6] | Average MBEC [7] | Average MBEC [8] | IC50 [12] | IC50 [14] | other results
1 | CC[C@H](C)[C@H](NC(=O)[C@H](CS)NC(=O)[C@H](Cc1ccccc1)NC(=O)[C@H](CCCNC(=N)N)NC(=O)CNC(=O)[C@H](CC(C)C)NC(=O)[C@H](CS)NC(=O)[C@H](CC(C)C)NC(=O)[C@H](CCCCN)NC(=O)[C@H](C)NC(=O)[C@H](CCCNC(=N)N)NC(=O)[C@@H](NC(=O)[C@@H](N)CCCCN)[C@@H](C)CC)C(=O)N[C@@H](CCCNC(=N)N)C(=O)N[C@@H](C)C(=O)N[C@@H](CCCCN)C(=O)N[C@@H](CC(C)C)C(=O)N[C@@H](CCCNC(=N)N)C(=O)O [RP439, KIRAKLCLGRFCIRAKLR] (H-KIRAKLCLGRFCIRAKLR-OH) | – | – | – | – | – | – | – | killing of C. difficile [1]: effective in killing; killing of P. aeruginosa [2]: effective in killing; killing of S. aureus [3]: effectively killed
2 | C[C@H](NC(=O)[C@H](Cc1ccccc1)NC(=O)[C@H](C)NC(=O)[C@@H](N)Cc1ccccc1)C(=O)N[C@@H](Cc1ccccc1)C(=O)N[C@@H](CCCN)C(=O)N[C@@H](C)C(=O)N[C@@H](Cc1ccccc1)C(=O)N[C@@H](CCCN)C(=O)N[C@@H](CCCN)C(=O)N[C@@H](C)C(=O)N[C@@H](Cc1ccccc1)C(=O)N[C@@H](CCCN)C(=O)N[C@@H](CCCN)C(=O)N[C@@H](Cc1ccccc1)C(=O)N[C@@H](CCCN)C(=O)N[C@@H](CCCN)C(=O)N[C@@H](C)C(=O)N[C@@H](Cc1ccccc1)C(=O)N[C@@H](CCCN)C(=O)N[C@@H](CCCN)C(=O)N[C@@H](C)C(=O)N[C@@H](Cc1ccccc1)C(=O)O [RP443, FAFAFOAFOOAFOOFOOAFOOAF] (H-FAFAF[Orn]AF[Orn][Orn]AF[Orn][Orn]F[Orn][Orn]AF[Orn][Orn]AF-OH; N-terminus and C-terminus assumed) | 55.6 µM | 3.68 µM | 57.62 µM | 7.36 µM | 3.68 µM | – | – | –
3 | C[C@H](NC(=O)[C@H](Cc1ccccc1)NC(=O)[C@H](C)NC(=O)[C@H](Cc1ccccc1)NC(=O)[C@H](CCCN)NC(=O)[C@H](C)NC(=O)[C@H](Cc1ccccc1)NC(=O)[C@H](CCCN)NC(=O)[C@H](CCCN)NC(=O)[C@H](C)NC(=O)[C@H](Cc1ccccc1)NC(=O)[C@H](CCCN)NC(=O)[C@H](CCCN)NC(=O)[C@H](Cc1ccccc1)NC(=O)[C@H](CCCN)NC(=O)[C@H](CCCN)NC(=O)[C@H](C)NC(=O)[C@H](Cc1ccccc1)NC(=O)[C@H](CCCN)NC(=O)[C@H](CCCN)NC(=O)[C@H](C)NC(=O)[C@@H](N)Cc1ccccc1)C(=O)N[C@@H](Cc1ccccc1)C(=O)O [RP444, FAOOFAOOFOOFAOOFAOFAFAF] (H-FA[Orn][Orn]FA[Orn][Orn]F[Orn][Orn]FA[Orn][Orn]FA[Orn]FAFAF-OH; N-terminus and C-terminus assumed) | 14.8 µM | 14.41 µM | 57.62 µM | 14.41 µM | 3.68 µM | – | – | –
4 | CC[C@H](C)[C@H](NC(=O)[C@H](CCCNC(=N)N)NC(=O)[C@H](C)NC(=O)[C@H](CC(C)C)NC(=O)[C@H](CCCNC(=N)N)NC(=O)[C@@H](N)CS)C(=O)N[C@H](C(=O)N[C@@H](CS)C(=O)NCC(=O)NCC(=O)N[C@@H](Cc1ccccc1)C(=O)N[C@@H](C)C(=O)N[C@@H](CCCN)C(=O)N[C@@H](CCCN)C(=O)N[C@@H](Cc1ccccc1)C(=O)N[C@@H](C)C(=O)N[C@@H](CCCN)C(=O)N[C@@H](CCCN)C(=O)N[C@@H](Cc1ccccc1)C(=O)N[C@@H](CCCN)C(=O)N[C@@H](CCCN)C(=O)N[C@@H](Cc1ccccc1)C(=O)N[C@@H](C)C(=O)N[C@@H](CCCN)C(=O)N[C@@H](CCCN)C(=O)N[C@@H](Cc1ccccc1)C(=O)N[C@@H](C)C(=O)N[C@@H](CCCN)C(=O)N[C@@H](Cc1ccccc1)C(=O)N[C@@H](C)C(=O)N[C@@H](Cc1ccccc1)C(=O)N[C@@H](C)C(=O)N[C@@H](Cc1ccccc1)C(=O)O)C(C)C [RP501, CRLARIVCGGFAOOFAOOFOOFAOOFAOFAFAF] (H-CRLARIVCGGFA[Orn][Orn]FA[Orn][Orn]F[Orn][Orn]FA[Orn][Orn]FA[Orn]FAFAF-OH; N-terminus and C-terminus assumed) | – | – | – | – | – | – | – | IC50 [9]: 14.5 µM; IC50 [10]: 13.6 µM; IC50 [11]: 7.3 µM
5 | CC[C@H](C)[C@H](NC(=O)CNC(=O)CNC(=O)[C@H](CS)NC(=O)[C@H](Cc1ccccc1)NC(=O)[C@H](CCCN)NC(=O)CNC(=O)[C@H](CC(C)C)NC(=O)[C@H](CS)NC(=O)CNC(=O)CNC(=O)[C@H](CC(C)C)NC(=O)[C@H](CCCN)NC(=O)[C@H](C)NC(=O)[C@H](CCCN)NC(=O)[C@@H](NC(=O)[C@H](CCCN)NC(=O)[C@@H](N)Cc1ccccc1)[C@@H](C)CC)C(=O)N[C@@H](CCCN)C(=O)N[C@@H](C)C(=O)N[C@@H](CCCN)C(=O)N[C@@H](CC(C)C)C(=O)N[C@@H](CCCN)C(=O)N[C@@H](Cc1ccccc1)C(=O)O [RP504, FOIOAOLGGCLGOFCGGIOAOLOF] (H-F[Orn]I[Orn]A[Orn]LGGCLG[Orn]FCGGI[Orn]A[Orn]L[Orn]F-OH; N-terminus and C-terminus assumed) | – | – | – | – | – | 23 µM | 2.7 µM | IC50 [13]: 43.3 µM; IC50 [10]: 17.6 µM; IC50 [11]: 10.8 µM
6 | CC[C@H](C)[C@H](NC(=O)[C@H](C)NC(=O)[C@H](CCCN)NC(=O)[C@H](CCCN)NC(=O)[C@H](CCCN)NC(=O)[C@@H](NC(=O)[C@H](CCCN)NC(=O)[C@H](CC(C)C)NC(=O)[C@H](CCCN)NC(=O)[C@H](CCCN)NC(=O)[C@H](CCCN)NC(=O)[C@H](CCCN)NC(=O)[C@H](C)NC(=O)[C@H](CCCN)NC(=O)[C@H](CO)NC(=O)[C@H](CC(C)C)NC(=O)[C@@H](NC(=O)[C@H](CCCCN)NC(=O)[C@H](CC(C)C)NC(=O)[C@H](CC(C)C)NC(=O)[C@H](CO)NC(=O)[C@H](CCCN)NC(=O)[C@H](CC(C)C)NC(=O)[C@@H](N)CCCN)[C@@H](C)O)[C@@H](C)O)C(=O)N[C@@H](CO)C(=O)N[C@@H](CCCN)C(=O)O [RP505, OLOSLLKTLSOAOOOOLOTOOOAISO] (H-[Orn]L[Orn]SLLKTLS[Orn]A[Orn][Orn][Orn][Orn]L[Orn]T[Orn][Orn][Orn]AIS[Orn]-OH; N-terminus and C-terminus assumed) | – | – | – | – | – | 13.2 µM | 17.5 µM | IC50 [15]: 8.8 µM
7 | CSCC[C@H](NC(=O)[C@H](Cc1c[nH]c2ccccc12)NC(=O)[C@H](CC(C)C)NC(=O)[C@H](C)N)C(=O)N[C@H](C(=O)N[C@@H](CC(C)C)C(=O)N[C@@H](CCCN)C(=O)N[C@@H](CCCN)C(=O)N[C@@H](CCCN)C(=O)N[C@H](C(=O)N[C@@H](CC(C)C)C(=O)N[C@@H](CCCN)C(=O)N[C@@H](C)C(=O)N[C@@H](CCCN)C(=O)N[C@@H](C)C(=O)N[C@@H](CCCN)C(=O)N[C@@H](C)C(=O)N[C@@H](CC(C)C)C(=O)N[C@@H](CC(N)=O)C(=O)N[C@@H](C)C(=O)N[C@H](C(=O)N[C@@H](CC(C)C)C(=O)N[C@H](C(=O)NCC(=O)N[C@@H](C)C(=O)N[C@@H](CC(N)=O)C(=O)N[C@@H](C)C(=O)O)C(C)C)C(C)C)C(C)C)[C@@H](C)O [RP507, ALWMTLOOOVLOAOAOALNAVLVGANA] (H-ALWMTL[Orn][Orn][Orn]VL[Orn]A[Orn]A[Orn]ALNAVLVGANA-OH; N-terminus and C-terminus assumed) | – | – | – | – | – | 43.3 µM | 20 µM | IC50 [15]: 40 µM
8 | C[C@H](N)C(=O)N[C@@H](Cc1ccccc1)C(=O)N[C@@H](C)C(=O)N[C@@H](Cc1ccccc1)C(=O)N[C@H](C(=O)N[C@@H](C)C(=O)N[C@@H](CCCN)C(=O)N[C@@H](CCCN)C(=O)N[C@@H](CCCN)C(=O)N[C@@H](Cc1ccccc1)C(=O)N[C@@H](C)C(=O)N[C@@H](CCCN)C(=O)N[C@@H](Cc1ccccc1)C(=O)N[C@@H](CCCN)C(=O)N[C@@H](C)C(=O)N[C@@H](CCCN)C(=O)N[C@@H](Cc1ccccc1)C(=O)N[C@@H](C)C(=O)N[C@@H](CC(N)=O)C(=O)N[C@@H](Cc1ccccc1)C(=O)N[C@@H](C)C(=O)N[C@@H](Cc1ccccc1)C(=O)N[C@@H](C)C(=O)NCC(=O)N[C@@H](Cc1ccccc1)C(=O)N[C@@H](CC(N)=O)C(=O)N[C@@H](C)C(=O)O)[C@@H](C)O [RP508, AFAFTAOOOFAOFOAOFANFAFAGFNA] (H-AFAFTA[Orn][Orn][Orn]FA[Orn]F[Orn]A[Orn]FANFAFAGFNA-OH; N-terminus and C-terminus assumed) | – | – | – | – | – | 46 µM | 38.3 µM | IC50 [13]: 38.3 µM
9 | CN[C@H](CC(C)C)C(=O)N[C@H]1C(=O)N[C@@H](CC(N)=O)C(=O)N[C@H]2C(=O)N[C@H]3C(=O)N[C@H](C(=O)N[C@H](C(=O)O)c4cc(O)cc(O)c4-c4cc3ccc4O)[C@H](O)c3ccc(c(Cl)c3)Oc3cc2cc(c3O[C@@H]2O[C@H](CO)[C@@H](O)[C@H](O)[C@H]2O[C@H]2C[C@](C)(N)[C@H](O)[C@H](C)O2)Oc2ccc(cc2Cl)[C@H]1O [vancomycin, reference compound] | – | – | – | – | – | – | – | killing of C. difficile [1]: not effective; killing of P. aeruginosa [2]: not effective
10 | CPGFAKKFAKKFKKFAKKFAKFAFAF [RP438] | 11.2 µM | 12.89 µM | 51.43 µM | 12.89 µM | 6.45 µM | – | – | –
11 | FAFAFAFKKAFKKFKKAFKKAF [RP442] | 0.95 µM | 14.68 µM | 234.28 µM | 14.68 µM | 1.87 µM | – | – | killing of C. difficile [1]: effective in killing; killing of P. aeruginosa [2]: effective in killing; killing of S. aureus [3]: effectively killed
